From patent US9241489B2, “Plant growth regulating compounds” (Syngenta Participations AG, priority 2011, dated 2016)

- melting point: 201 to 202 °C
Structure (SMILES): N#Cc1cnc(NC(=O)CCC(=O)O)cn1 [Compound A1, 4-[(5-cyanopyrazin-2-yl)amino]-4-oxo-butanoic acid]
